How the values were obtained:
[1] = system: SK-MEL2 human tumor cells that were transfected with a plasmid containing the murine VEGF gene; assay: Matrigel Angiogenesis Model (hemoglobin content of Matrigel pellets); assay type: in vivo, Mice; settings: vs. vehicle control animals, 12 days post-implantation
Description: Preparation of Matrigel Plugs and in vivo Phase: Matrigel® (Collaborative Biomedical Products, Bedford, MA) is a basement membrane extract from a murine tumor composed primarily of laminin, collagen IV and heparan sulfate proteoglycan. It is provided as a sterile liquid at 4° C, but rapidly forms a solid gel at 37° C.
Liquid Matrigel at 4° C was mixed with SK-MEL2 human tumor cells that were transfected with a plasmid containing the murine VEGF gene with a selectable marker. Tumor cells were grown in vitro under selection and cells were mixed with cold liquid Matrigel at a ratio of 2 X 10^6 per 0.5 ml. […]
Optical densities were determined spectrophotometrically at 600 nm in a 96-well plate reader, SpectraMax 250 Microplate Spectrophotometer System (Molecular Devices, Sunnyvale, CA). Background Lysis Buffer readings were subtracted from all wells.
Total sample hemoglobin content was calculated according to the following equation: Total Hemoglobin = (Sample Lysate Volume) × (Hemoglobin Concentration) [formula]
The average Total Hemoglobin of Matrigel samples without cells was subtracted from each Total Hemoglobin Matrigel sample with cells. Percent inhibition was calculated according to the following equation: % Inhibition = ((Average Total Hemoglobin Drug-Treated Tumor Lysates) × 100)/((Average Total Hemoglobin Non-Treated Tumor Lysates)) [formula] […]

[2] = target: T1, NIH3T3 cells expressing the full length KDR receptor (Homo sapiens, UniProt P35968); assay: Cell mechanistic assay - Inhibition of 3T3 KDR phosphorylation; assay type: cell-based; settings: VEGF (30 ng / ml) stimulated KDR phosphorylation in NIH3T3 cells, 30 minutes preincubation
T1 construct: NIH3T3 cells expressing the full length KDR receptor; expressed in transfected cells; host or cells: NIH3T3 cells (G418 selection)
T1 sequence (P35968 20-1356): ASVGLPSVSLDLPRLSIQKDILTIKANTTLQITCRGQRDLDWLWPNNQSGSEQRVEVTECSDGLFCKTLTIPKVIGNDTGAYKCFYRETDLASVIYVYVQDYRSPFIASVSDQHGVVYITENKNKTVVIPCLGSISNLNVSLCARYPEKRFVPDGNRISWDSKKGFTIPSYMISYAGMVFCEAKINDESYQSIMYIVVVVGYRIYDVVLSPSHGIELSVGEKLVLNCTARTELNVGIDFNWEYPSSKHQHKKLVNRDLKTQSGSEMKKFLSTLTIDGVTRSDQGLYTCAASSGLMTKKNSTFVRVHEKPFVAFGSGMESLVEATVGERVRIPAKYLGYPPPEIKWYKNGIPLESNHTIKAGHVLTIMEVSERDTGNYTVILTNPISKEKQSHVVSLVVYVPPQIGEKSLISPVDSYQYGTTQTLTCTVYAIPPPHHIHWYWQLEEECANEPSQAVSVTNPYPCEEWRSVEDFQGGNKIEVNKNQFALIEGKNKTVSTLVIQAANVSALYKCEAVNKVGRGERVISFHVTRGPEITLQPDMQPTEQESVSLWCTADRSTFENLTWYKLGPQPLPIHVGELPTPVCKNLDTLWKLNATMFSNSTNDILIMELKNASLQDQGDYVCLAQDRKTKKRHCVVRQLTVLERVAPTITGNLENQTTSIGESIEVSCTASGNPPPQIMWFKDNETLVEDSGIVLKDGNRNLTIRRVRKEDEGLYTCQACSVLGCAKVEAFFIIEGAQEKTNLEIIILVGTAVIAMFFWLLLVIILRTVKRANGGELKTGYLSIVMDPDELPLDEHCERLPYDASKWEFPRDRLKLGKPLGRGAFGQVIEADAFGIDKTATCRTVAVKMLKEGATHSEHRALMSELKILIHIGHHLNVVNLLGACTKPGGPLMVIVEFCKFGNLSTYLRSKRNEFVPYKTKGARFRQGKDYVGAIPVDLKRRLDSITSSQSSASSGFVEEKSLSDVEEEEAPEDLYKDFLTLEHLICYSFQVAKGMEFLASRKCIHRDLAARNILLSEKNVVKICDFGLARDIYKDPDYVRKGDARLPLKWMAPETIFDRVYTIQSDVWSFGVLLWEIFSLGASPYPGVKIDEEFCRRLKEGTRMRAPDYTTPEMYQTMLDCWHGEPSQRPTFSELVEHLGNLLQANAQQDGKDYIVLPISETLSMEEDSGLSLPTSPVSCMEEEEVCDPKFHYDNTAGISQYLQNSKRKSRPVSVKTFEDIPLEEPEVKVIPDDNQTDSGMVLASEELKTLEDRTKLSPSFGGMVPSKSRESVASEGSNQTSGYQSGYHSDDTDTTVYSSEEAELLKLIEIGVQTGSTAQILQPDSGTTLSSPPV
Description: NIH3T3 cells expressing the full length KDR receptor were grown in DMEM (Life Technologies, Inc., Grand Island, NY) supplemented with 10% newborn calf serum, low glucose, 25 mM /L sodium pyruvate, pyridoxine hydrochloride and 0.2 mg/ ml of G418 (Life Technologies Inc., Grand Island, NY). The cells were maintained in collagen I-coated T75 flasks (Becton Dickinson Labware, Bedford, MA) in a humidified 5% CO2 atmosphere at 37°C.
Fifteen thousand cells were plated into each well of a collagen 1-coated 96-well plate in the DMEM growth medium. Six hours later, the cells were washed and the medium was replaced with DMEM without serum. After overnight culture to quiesce the cells, the medium was replaced by Dulbecco's phosphate-buffered saline (Life Technologies Inc., Grand Island, NY) with 0.1 % bovine albumin (Sigma Chemical Co., St Louis, MO). After adding various concentrations (0-300 nM) of test compounds to the cells in 1% final concentration of DMSO, the cells were incubated at room temperature for 30 minutes. The cells were then treated with VEGF (30 ng / ml) for 10 minutes at room temperature. Following VEGF stimulation, the buffer was removed and the cells were lysed by addition of 150 µl of extraction buffer (50 mM Tris, pH 7.8, supplemented with 10% glycerol, 50 mM BGP, 2 mM EDTA, 10 mM NaF, 0.5 mM NaVO4, and 0.3% TX-100) at 4°C for 30 minutes.
To assess receptor phosphorylation, 100 microliters of each cell lysate was added to the wells of an ELISA plate precoated with 300 ng of antibody C20 (Santa Cruz Biotechnology, Inc., Santa Cruz , CA). Following a 60-minute incubation, the plate was washed and bound KDR was probed for phosphotyrosine using an anti-phosphotyrosine mAb clone 4G10 (Upstate Biotechnology, Lake Placid, NY). The plate was washed and wells were incubated with anti-mouse IgG/HRP conjugate (Amersham International plc, Buckinghamshire, England) for 60 minutes. Wells were washed and phosphotyrosine was quantitated by addition of 100 µl per well of 3,3',5,5' tetramethylbenzidine (Kirkegaard and Perry, TMB Microwell 1 Component peroxidase substrate) solution. Color development was arrested by the addition of 100 µl 1% HCl based stop solution (Kirkegaard and Perry, TMB 1 Component Stop Solution).
Optical densities (OD) were determined spectrophotometrically at 450 nm in a 96-well plate reader (SpectraMax 250, Molecular Devices). Background (no VEGF added) OD values were subtracted from all ODs and percent inhibition was calculated according to the equation: % Inhibition = ((OD(VEGF control)-OD(with test compound)) × 100)/(OD(VEGF control)-OD(no VEGF added)) [formula]
IC50s were determined on some of the exemplary materials with a least squares analysis program using compound concentration versus percent inhibition. Compounds that have IC50 ≤ 20 nM in this assay include those of Examples 2, 6, 10, 11, 14, 23, 96, 101, 102, 103, 104, 105. Compounds that have IC50 values between 20 nM and 50 nM include those of examples 1, 4, 8, 9, 12, 13, 17, 24, 93, 98. Compounds that have IC50 values between 50 nM and 400 nM include those of examples 97, 99, and 100.

## Clc1ccc(Nc2nnc(OCc3ccncc3)c3sccc23)cc1 [Example 8, 4-(4-chlorophenylamino)-7-(4-pyridylmethoxy)thieno-[2,3-d]pyridazine]
[1]; 100 mg/kg po sid
  inhibition of total hemoglobin content of the Matrigel samples: > 60%
[1]; 300 mg/kg po sid
  inhibition of total hemoglobin content of the Matrigel samples: > 60%
[2]
  IC50: 20 to 50 nM

From EP1228063B1, “SUBSTITUTED PYRIDINES AND PYRIDAZINES WITH ANGIOGENESIS INHIBITING ACTIVITY” (BAYER CORPORATION, priority 1999, dated 2001)
